In US20200385406A1 (priority 2017, published 2020):
Like-named read-outs stand apart in the source and are kept apart here.

Key:
HIV-1 NL4-3 = experiment: HIV-1 infectivity assay in TZM-bl reporter cells; format: cell-based; conditions: for inhibition at 3 µM: Human immunodeficiency virus 1, NL43, TZM-bl, read-out: % Inhibition of HIV-1 Infectivity at 3 μM relative to ΔNef
Method: The antiretroviral activity of Nef inhibitor analogs was assessed using the reporter cell line, TZM-bl, which are HeLa cells engineered to express CD4, HIV-1 co-receptors, as well as an HIV-1 LTR-luciferase reporter gene. TZM-bl cells (2.5×10^4) were plated in 96-well plates and allowed to adhere overnight prior to infection. Adherent cells and HIV-1NL4-3 (typically 5,000 pg p24/ml) were then incubated separately with compounds for 3 h and combined in a final volume of 200 μl in each well. Following incubation for 48 h at 37° C., the cells were lysed in 50 μl luciferase cell culture lysis reagent (Promega). Lysates (40 μl) were then transferred to white 96-well plates followed by 50 μl injections of luciferase reagent per well (Promega). Luminescence was then recorded with a delay time of 2 s and an integration period of 10 s. Cytotoxicity of each compound in the absence of HIV-1 was evaluated in TZM-bl cells using the CellTiter-Blue cell viability assay (Promega).

HIV-1 Nef NL4-3 = target: T1, HIV-1 Nef NL4-3 (Human immunodeficiency virus type 1 group M subtype B, UniProt P03406, A33V/T15A/T51N/V11I); experiment: SPR binding to recombinant purified Nef protein
T1 construct: Full-length recombinant Nef proteins (HIV-1 Nef-SF2, HIV-1 Nef NL4-3 and SIV Nef-mac239) were expressed in E. coli; His-6 (N); made in house; host or cells: E. coli
Method: (§1) Interaction of inhibitor analogs with recombinant purified Nef proteins was performed using an SPR-based binding assay on a Reichert 4-channel SPR instrument. Full-length recombinant Nef proteins (HIV-1 Nef-SF2, HIV-1 Nef NL4-3 and SIV Nef-mac239) were expressed in E. coli and purified via N-terminal His-6 tags, ion-exchange chromatography, and gel filtration. Purity and identity of the Nef proteins was confirmed by SDS-PAGE and mass spectrometry. For SPR, Nef proteins were immobilized on carboxymethyl dextran biosensor chips (Reichert) in HBS-EP running buffer (10 mM HEPES, pH 7.4, 150 mM NaCl, 3 mM EDTA, 0.05% v/v Surfactant P20). Test compounds were injected in triplicate over a range of concentrations (typically 0.1 to 30 μM) at a rate of 10 μL/min for one min until equilibrium was reached, followed by dissociation in HBS-EP for 2 min. Kinetic rate constants were calculated from reference-corrected sensorgrams using the TraceDrawer software package (Reichert), and were best fit via 1:1 Langmuir or 2-step induced-fit binding models. Some initial SPR experiments were performed on a BIAcore T100 instrument (GE Healthcare) using four-channel CM5 biosensor chips, and ligand-protein interactions were best-fit using the BIAevaluations software (version 2.0.4).

SIV Nef-mac239 = SIV Nef-mac239 (Simian immunodeficiency virus, UniProt Q5QGG3); experiment: SPR binding to recombinant purified Nef protein
Method: as §1

HIV-1 Nef-SF2 = target: T2, HIV-1 Nef-SF2 (Human immunodeficiency virus type 1 group M subtype B, UniProt P03407); experiment: SPR binding to recombinant purified Nef protein
T2 construct: Full-length recombinant Nef proteins (HIV-1 Nef-SF2, HIV-1 Nef NL4-3 and SIV Nef-mac239) were expressed in E. coli; His-6 (N); made in house; host or cells: E. coli
Method: as §1

[1] = HIV-1 Nef-SF2, KD, Biacore T100 instrument
[2] = HIV-1 Nef-SF2, KD, Reichert 4-Channel instrument, N/I = No Interaction up to 1 μM
[3] = SPR, Reichert 4-Channel instrument, N/I = No Interaction up to 1 μM
[4] = Reichert 4-Channel instrument, N/I = No Interaction up to 1 μM

Molecule | inhibition at 3 µM (HIV-1 NL4-3) | Kd (HIV-1 Nef-SF2; [1]) | Kd (HIV-1 Nef NL4-3) | Kd (SIV Nef-mac239) | Kd (HIV-1 Nef-SF2; [2]) | other results
2-(2-methyl-5-(morpholine-4-carbonyl)phenyl)isothiazolo[5,4-b]pyridin-3(2H)-one [Compound 15] | – | – | – | – | – | % Inhibition of HIV-1 Infectivity at 3 μM relative to ΔNef (HIV-1 NL4-3; 3 μM, TZM-bl reporter cells infected with HIV-1 NL4-3): 81%; Kd (HIV-1 Nef NL4-3; SPR, Reichert 4-Channel instrument, N/I = No Interaction up to 1 μM, read-out: HIV-1 Nef-NL43, KD): 140 nM; Kd (SIV Nef-mac239; SPR, Reichert 4-Channel instrument, N/I = No Interaction up to 1 μM, read-out: SIV Nef-mac239, KD): 1280 nM; Kd (HIV-1 Nef-SF2; Reichert 4-Channel instrument, N/I = No Interaction up to 1 μM, read-out: HIV-1 Nef-SF2, KD): 390 nM
O=C(c1cc(-n2sc3ncccc3c2=O)ccc1F)N1CCOCC1 [Compound 1, 2-(4-fluoro-3-(morpholine-4-carbonyl)phenyl)isothiazolo[5,4-b]pyridin-3(2H)-one] | 84% | 1030 nM | – | – | – | –
Cc1ccc2c(=O)n(-c3ccc(F)c(C(=O)N4CCOCC4)c3)sc2n1 [Compound 2, 2-(4-fluoro-3-(morpholine-4-carbonyl)phenyl)-6-methylisothiazolo[5,4-b]pyridin-3(2H)-one] | 52% | 500 nM | – | – | – | –
Cc1ccc2c(=O)n(-c3ccc(Cl)c(C(=O)N4CCOCC4)c3)sc2n1 [Compound 3, 2-(4-chloro-3-(morpholine-4-carbonyl)phenyl)-6-methylisothiazolo[5,4-b]pyridin-3(2H)-one] | 23% | 870 nM | – | – | – | –
Cc1ccc2c(=O)n(-c3ccc(C)c(S(=O)(=O)N4CCCC4)c3)sc2n1 [Compound 4, 6-methyl-2-(4-methyl-3-(pyrrolidin-1-ylsulfonyl)phenyl)isothiazolo[5,4-b]pyridin-3(2H)-one] | 32% | 260 nM | – | – | – | –
O=C(c1cc(-n2sc3ncccc3c2=O)ccc1Cl)N1CCOCC1 [Compound 5, 2-(4-chloro-3-(morpholine-4-carbonyl)phenyl)isothiazolo[5,4-b]pyridin-3(2H)-one] | 99% | 162 nM | 7330 nM | 1510 nM | 2240 nM | –
Cc1ccc(-n2sc3ncccc3c2=O)cc1S(=O)(=O)N1CCCC1 [Compound 6, 2-(4-methyl-3-(pyrrolidin-1-ylsulfonyl)phenyl)isothiazolo[5,4-b]pyridin-3(2H)-one] | 28% | – | 8660 nM | 1600 nM | 2400 nM | –
O=C(Nc1ccc(Cl)cc1)c1cc(-n2sc3ncccc3c2=O)ccc1Cl [Compound 7, 2-chloro-N-(4-chlorophenyl)-5-(3-oxoisothiazolo[5,4-b]pyridin-2(3H)-yl)benzamide] | 58% | 120 nM | 190 nM | 280 nM | – | HIV-1 Nef-NL43, KD (HIV-1 Nef NL4-3; [3]): N/I; SIV Nef-mac239, KD (SIV Nef-mac239; [3]): N/I; HIV-1 Nef-SF2, KD (HIV-1 Nef-SF2; [4]): N/I
O=C(c1cc(-n2sc3nc(C(F)(F)F)ccc3c2=O)ccc1Cl)N1CCOCC1 [Compound 8, 2-(4-chloro-3-(morpholine-4-carbonyl)phenyl)-6-(trifluoromethyl)isothiazolo[5,4-b]pyridin-3(2H)-one] | 71% | 110 nM | 310 nM | 780 nM | 2340 nM | HIV-1 Nef-NL43, KD (HIV-1 Nef NL4-3; [3]): N/I; SIV Nef-mac239, KD (SIV Nef-mac239; [3]): N/I
O=C(c1ccc(-n2sc3ncccc3c2=O)cc1)N1CCCC1 [Compound 9, 2-(4-(pyrrolidine-1-carbonyl)phenyl)isothiazolo[5,4-b]pyridin-3(2H)-one] | 38% | – | 40 nM | – | – | –
O=C(c1cccc(-n2sc3ncccc3c2=O)c1)N1CCOCC1 [Compound 10, 2-(3-(morpholine-4-carbonyl)phenyl)isothiazolo[5,4-b]pyridin-3(2H)-one] | 88% | – | 250 nM | – | – | –
CC1(C)CN(C(=O)c2cc(-n3sc4ncccc4c3=O)ccc2Cl)CCO1 [Compound 11, 2-(4-chloro-3-(2,2-dimethylmorpholine-4-carbonyl)phenyl)isothiazolo[5,4-b]pyridin-3(2H)-one] | 89% | – | 210 nM | 1690 nM | 220 nM | –
O=C(c1cc(-n2sc3ncccc3c2=O)ccc1Cl)N1CCCC1 [Compound 12, 2-(4-chloro-3-(pyrrolidine-1-carbonyl)phenyl)isothiazolo[5,4-b]pyridin-3(2H)-one] | 100% | – | 960 nM | 3660 nM | 1710 nM | –
CC1CN(C(=O)c2cc(-n3sc4ncccc4c3=O)ccc2Cl)CC(C)O1 (stereo not drawn) [Compound 13, 2-(4-chloro-3-(2,6-dimethylmorpholine-4-carbonyl)phenyl)isothiazolo[5,4-b]pyridin-3(2H)-one] | 100% | – | 590 nM | 1410 nM | 380 nM | –
O=C(c1cc(-n2sc3ncccc3c2=O)ccc1Cl)N1CCCCC1 [Compound 14, 2-(4-chloro-3-(piperidine-1-carbonyl)phenyl)isothiazolo[5,4-b]pyridin-3(2H)-one] | 82% | – | 1760 nM | 3110 nM | 1400 nM | –
O=C(c1cc(-n2sc3ncccc3c2=O)ccc1Cl)N1CCC(F)(F)CC1 [Compound 16] | 60% | – | 56200 nM | 21100 nM | 9390 nM | –
O=C(c1cc(N2Cc3ncccc3C2=O)ccc1Cl)N1CCOCC1 [Compound 17, 6-(4-chloro-3-(morpholine-4-carbonyl)phenyl)-6,7-dihydro-5H-pyrrolo[3,4-b]pyridin-5-one] | 16% | – | – | – | – | HIV-1 Nef-NL43, KD (HIV-1 Nef NL4-3; [3]): N/I; SIV Nef-mac239, KD (SIV Nef-mac239; [3]): N/I; HIV-1 Nef-SF2, KD (HIV-1 Nef-SF2; [4]): N/I
